# Measured values published in the supplement of paper PMC11451515.
# System: P12-Ichikawa
# Assay: cell viability relative to DMSO control; higher = less cytotoxic
# Conditions: 48 h
# In short: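 Viability is a per-plate percentage relative to DMSO wells, with cell-free wells as background. CellTiter-Glo One luminescence was read after 48 h at 37°C on 1536-well plates (5 μl) of NOMO1 or SEM (500 cells/well) or P12-Ichikawa (1000 cells/well) leukemia cells. The cells had been adapted for at least four passages in each medium and pin-dosed with library compounds in DMSO from 47 μM to 0.79 nM in 11 threefold steps.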
# [1] = HPLM + 10% dialyzed FBS, 0.000781 µM
# [2] = HPLM + 10% dialyzed FBS, 0.00234 µM
# [3] = HPLM + 10% dialyzed FBS, 0.00702 µM
# [4] = HPLM + 10% dialyzed FBS, 0.0211 µM
# [5] = HPLM + 10% dialyzed FBS, 0.0632 µM
# [6] = HPLM + 10% dialyzed FBS, 0.19 µM
# [7] = HPLM + 10% dialyzed FBS, 0.569 µM
# [8] = HPLM + 10% dialyzed FBS, 1.71 µM
# [9] = HPLM + 10% dialyzed FBS, 5.12 µM
# [10] = HPLM + 10% dialyzed FBS, 15.4 µM
# [11] = HPLM + 10% dialyzed FBS, 46.1 µM
# [12] = RPMI 5 mM glucose + 10% FBS, 0.000781 µM
# [13] = RPMI 5 mM glucose + 10% FBS, 0.00234 µM
# [14] = RPMI 5 mM glucose + 10% FBS, 0.00702 µM
# [15] = RPMI 5 mM glucose + 10% FBS, 0.0211 µM
# [16] = RPMI 5 mM glucose + 10% FBS, 0.0632 µM
# [17] = RPMI 5 mM glucose + 10% FBS, 0.19 µM
# [18] = RPMI 5 mM glucose + 10% FBS, 0.569 µM
# [19] = RPMI 5 mM glucose + 10% FBS, 1.71 µM
# [20] = RPMI 5 mM glucose + 10% FBS, 5.12 µM
# [21] = RPMI 5 mM glucose + 10% FBS, 15.4 µM
# [22] = RPMI 5 mM glucose + 10% FBS, 46.1 µM
# [23] = RPMI 5 mM glucose + 10% dialyzed FBS, 0.000781 µM
# [24] = RPMI 5 mM glucose + 10% dialyzed FBS, 0.00234 µM
# [25] = RPMI 5 mM glucose + 10% dialyzed FBS, 0.00702 µM
# [26] = RPMI 5 mM glucose + 10% dialyzed FBS, 0.0211 µM
# [27] = RPMI 5 mM glucose + 10% dialyzed FBS, 0.0632 µM
# [28] = RPMI 5 mM glucose + 10% dialyzed FBS, 0.19 µM
# [29] = RPMI 5 mM glucose + 10% dialyzed FBS, 0.569 µM
# [30] = RPMI 5 mM glucose + 10% dialyzed FBS, 1.71 µM
# [31] = RPMI 5 mM glucose + 10% dialyzed FBS, 5.12 µM
# [32] = RPMI 5 mM glucose + 10% dialyzed FBS, 15.4 µM
# [33] = RPMI 5 mM glucose + 10% dialyzed FBS, 46.1 µM
Structure (SMILES),cell viability [1] [%],cell viability [2] [%],cell viability [3] [%],cell viability [4] [%],cell viability [5] [%],cell viability [6] [%],cell viability [7] [%],cell viability [8] [%],cell viability [9] [%],cell viability [10] [%],cell viability [11] [%],cell viability [12] [%],cell viability [13] [%],cell viability [14] [%],cell viability [15] [%],cell viability [16] [%],cell viability [17] [%],cell viability [18] [%],cell viability [19] [%],cell viability [20] [%],cell viability [21] [%],cell viability [22] [%],cell viability [23] [%],cell viability [24] [%],cell viability [25] [%],cell viability [26] [%],cell viability [27] [%],cell viability [28] [%],cell viability [29] [%],cell viability [30] [%],cell viability [31] [%],cell viability [32] [%],cell viability [33] [%]
CC(=O)N(O)CCCCCNC(=O)CCC(=O)N(O)CCCCCNC(=O)CCC(=O)N(O)CCCCCN.C[S+](=O)([O-])O,93.5,76.5,40.7,10.3,11,11.2,10.8,9.88,9.31,9.06,9.61,98.4,110,99,99,54.9,13.4,13.2,11.6,16.4,11.4,12.3,97.8,108,114,99.2,79.9,18.4,20.7,16.7,15.2,16.1,22
Nc1ncnc2nc(-c3ccc(N4CCOCC4)nc3)cc(-c3cccc(Br)c3)c12,116,128,117,122,117,117,115,119,111,108,113,,,,,,,,,,,,114,121,112,121,118,121,129,115,115,108,112
Cc1nc2ccc(CN(C)c3ccc(C(=O)N[C@@H](CCC(=O)O)C(=O)O)s3)cc2c(=O)[nH]1,119,119,118,118,120,56.7,42.2,26.5,24.9,25.9,21.4,112,117,126,115,113,97,66.2,42.6,38.2,35.1,31.7,106,116,105,119,108,88.9,60.8,32.4,28.5,27.8,26.9
NC(=O)c1nnn(Cc2cc(Cl)c(C(=O)c3ccc(Cl)cc3)c(Cl)c2)c1N,,,,,,,,,,,,122,137,122,130,128,128,136,120,120,122,70.9,122,128,122,134,123,119,131,121,109,118,68
COc1ccc(/C=C/C(=O)Nc2ccccc2C(=O)O)cc1OC,110,111,108,112,121,108,93.1,100,108,99.3,102,112,108,113,115,113,101,107,106,107,105,102,103,101,113,114,111,110,98.5,80.4,103,98.5,94.8
CCC(=O)NC[C@H](Cc1ccc(OCCc2nc(-c3ccccc3)oc2C)cc1)N/C(C)=C\C(=O)c1ccc(C(F)(F)F)cc1,102,97.6,93.8,104,109,106,91.1,99.1,76,35,8.82,95.8,98,103,112,106,110,77.7,105,66.7,50.4,7.18,98.3,99.4,100,104,99.3,99.7,83.6,86.8,62.1,53.3,11.8
Nc1cc(N2CCCCC2)nc(N)[n+]1[O-],114,125,122,118,120,127,131,125,122,119,122,125,128,121,134,127,123,131,127,131,134,127,113,124,111,125,121,114,125,129,121,113,117
O=C(Nc1cccnc1)N1CCC(Cc2cccc(Oc3ccc(C(F)(F)F)cn3)c2)CC1,116,107,109,104,110,92,83.1,76.3,68.7,27.1,15.5,109,117,117,106,118,97.6,82.2,64.2,55.6,23.5,10.4,108,108,113,114,103,88.4,81.1,62.6,50.4,29.3,13.9
